In paper PMC5421877, “SOCS3 inhibits the pathological effects of IL-22 in non-melanoma skin tumor-derived keratinocytes” (Oncotarget, 2017):

Key:
[1] = system: SOCS3 expression in healthy keratinocytes; test: SOCS3 mRNA and protein induction in healthy keratinocytes; format: cell-based, human; conditions: healthy keratinocytes, 3 h mRNA, 6 h protein
Procedure: Figure 1 IL-22 induces SOCS3, which limits STAT3 and Erk1/2 activation (A) Keratinocyte cultures (n = 3) were stimulated with IL-22 or not for 10 min and protein lysates were subjected to immunoprecipitation and WB analyses for basal and phospho-IL-22R1, Tyk2 or Jak1. (B) WB of time-course experiments were performed on keratinocyte cultures (n = 3) to evaluate basal STAT3, Erk1/2 and MEK or phosphor-STAT3 (Tyr705 and Ser 727), phosphor-Erk1/2 and phospho-MEK. Anti-β-actin Ab was used to normalize sample loading. (C) SOCS mRNA and protein levels were detected by real-time PCR or WB analyses in cultured keratinocytes prepared from healthy skin (n = 3) left untreated or stimulated with IL-22 for the indicated time periods and normalized with β-actin values. (D) HaCaT cells stably transfected with myc-tagged SOCS1 (n = 4), SOCS2 (n = 2) and SOCS3 (n = 4) genes or control plasmids (mock, n = 3) were left untreated or stimulated with IL-22 for 15 min or 3 h and lysates subjected to WB with anti-phospho STAT3 (Tyr705), -phospho STAT3 (Ser727), -STAT3, -phospho Erk, -Erk, -c-myc and -β-actin Abs, as indicated. (E) Keratinocyte cultures were transiently transfected with siRNA specific for SOCS3 or control siRNA (NC). After 48-h transfection, cells were stimulated with IL-22 or not for the indicated time periods. In RNA interference experiments, data were obtained by three independent experiments, and SOCS3 depletion was assessed by real-time PCR and WB. […] Data are expressed as ratio of densitometric intensity (D. I.) of phosphorylated and unphosphorylated STAT3 and Erk1/2 proteins. p < 0.05 (*) values were considered significant.
Figure 4 SOCS3 and SOCS1 are poorly expressed in the epidermis of NMSC lesions and are not induced in transformed keratinocytes by IL-22 (A) Immunohistochemistry for SOCS3 and SOCS1 (red staining) was performed respectively on frozen or paraffin-embedded sections from biopsies of healthy skin (i), NLS (ii, iii) and LS (iv, v) areas of BCC and SCC, specimens. Psoriatic skin biopsies were also analyzed (vi). Sections were counterstained with Mayer's H&E and were visually evaluated by an pathologist experienced in dermatology. […] (B) Graphs show SOCS3 and SOCS1 mRNA levels which were detected by real-time PCR analysis in cultured SCC (CAL27 and CAL33) and BCC (M77015) skin tumor lines left untreated or stimulated with IL-22 or IFN-γ for 3 h and normalized for β-actin mRNA expression levels. […] SOCS1 was detected by IP using a specific anti-SOCS1 Ab, whereas SOCS3 by WB with an anti-SOCS3 Ab. […] Densitometric intensity (D.I.) of SOCS1 or SOCS3/β-actin was calculated from three independent experiments and numerically expressed as D. I. Ratio. *p < 0.01; **p < 0.05. […] SOCS3 and phospho-Tyr STAT3 levels were detected by WB and normalized to β-actin levels. […]

[2] = system: SOCS1 expression in keratinocytes and SCC/BCC lines; test: SOCS1 mRNA and protein induction; format: cell-based; conditions: all cell lines, 3 h mRNA, 6 h protein
Procedure: (§1) Figure 4 SOCS3 and SOCS1 are poorly expressed in the epidermis of NMSC lesions and are not induced in transformed keratinocytes by IL-22 (A) Immunohistochemistry for SOCS3 and SOCS1 (red staining) was performed respectively on frozen or paraffin-embedded sections from biopsies of healthy skin (i), NLS (ii, iii) and LS (iv, v) areas of BCC and SCC, specimens. Psoriatic skin biopsies were also analyzed (vi). Sections were counterstained with Mayer's H&E and were visually evaluated by an pathologist experienced in dermatology. One out of four representative staining is shown. Scale bars, […]. (B) Graphs show SOCS3 and SOCS1 mRNA levels which were detected by real-time PCR analysis in cultured SCC (CAL27 and CAL33) and BCC (M77015) skin tumor lines left untreated or stimulated with IL-22 or IFN-γ for 3 h and normalized for β-actin mRNA expression levels. All data were obtained from three independent experiments. […] SOCS1 was detected by IP using a specific anti-SOCS1 Ab, whereas SOCS3 by WB with an anti-SOCS3 Ab. […] Densitometric intensity (D.I.) of SOCS1 or SOCS3/β-actin was calculated from three independent experiments and numerically expressed as D. I. Ratio. *p < 0.01; **p < 0.05. […] SOCS3 and phospho-Tyr STAT3 levels were detected by WB and normalized to β-actin levels. […]

[3] = system: SOCS3 expression in SCC and BCC skin tumor lines; test: SOCS3 mRNA and protein induction in SCC or BCC tumor cells; format: cell-based; conditions: SCC (CAL27, CAL33) and BCC (M77015) lines, 3 h mRNA, 6 h protein
Procedure: as §1

[4] = system: CAL27 cells; test: Scratch assay (migration), CAL27; format: cell-based; conditions: 24 h
Procedure: (§2) Figure 6 IL-22-induced proliferation and migration of healthy and transformed keratinocytes is counteracted by KIR-ESS peptide (A) Healthy KC, CAL27 and CAL33 cultures were plated in 96-well plates in quadruplicate for each condition. After 1 day, cells were pre-treated or not with Ctrl1 or KIR-ESS peptides (40 μM), or S31-201 ([…]) and PD98059 ([…]) chemical inhibitors, and, then, stimulated or not with 50 ng/ml of IL-22. Data relative to 48-h treatment are shown and expressed as the values of fluorescence intensity obtained from untreated and IL-22-treated ± SD. Three independent experiments were performed. *p < 0.01. (B) Scratch assays were carried out on healthy or SCC-lines, pre-incubated with mitomycin C (5 mg/ml), pre-treated with Ctrl1 or KIR-ESS peptides (40 μM), or S31-201 ([…]) or PD98059 ([…]) chemical inhibitors, and, then, stimulated or not with IL-22 for 24 h. Microscopic images were taken immediately after and 24 h after wound induction on confluent cell layers. Initial scratches (0 h) are dashed blank. (C) Cell-free area was measured and indicated as residual wound. Data are reported as healed wound (gray area of bars) vs residual wound (white area of bars) which a value of 100% was given. *p < 0.01.
(§3) Cultured keratinocytes and SCC cell lines were grown at 100% confluence on type IV collagen (20 μg/ml), and then incubated with mitomycin C (5 mg/ml) (Sigma-Aldrich) for 1 h. Cell monolayers were scratched with the tip of a p-200 pipette to create uniform cell-free zones, and, then, pre-treated with appropriate concentrations of SOCS3 mimetic or control peptides, or with 10 μM STAT3 (S3I-201, Santa Cruz) and 20 μM Erk1/2 (PD98059, Calbiochem) inhibitors for 1 h, before treating by 50 ng/ml of IL-22. Microscopy pictures were taken with a digital camera at different time points following IL-22 treatment. The residual gap between migrating keratinocytes was measured with a computer-assisted image analysis system (Axiovision; Zeiss, Oberkochen, Germany), and expressed as percentage of the initial scratched area.

[5] = system: SCC-cell lines (CAL27 and CAL33); test: CyQUANT proliferation assay, SCC-cell lines; format: cell-based; conditions: PD98059 20 μM or S3I-201 10 μM, 48 h
Procedure: (§4) Figure 6 IL-22-induced proliferation and migration of healthy and transformed keratinocytes is counteracted by KIR-ESS peptide (A) Healthy KC, CAL27 and CAL33 cultures were plated in 96-well plates in quadruplicate for each condition. After 1 day, cells were pre-treated or not with Ctrl1 or KIR-ESS peptides (40 μM), or S31-201 ([…]) and PD98059 ([…]) chemical inhibitors, and, then, stimulated or not with 50 ng/ml of IL-22. Data relative to 48-h treatment are shown and expressed as the values of fluorescence intensity obtained from untreated and IL-22-treated ± SD. Three independent experiments were performed. *p < 0.01. […] (C) Cell-free area was measured and indicated as residual wound. […]
(§5) SOCS1- and SOCS3 stably transfected keratinocytes or cultured keratinocytes previously transfected with SOCS3 or control siRNA were seeded in 96-well plates (1.5–2.0 × 10^4 cells/well), and, the day after, starved in medium without serum. At 60% confluence, cells were treated with 75 ng/ml of IL-22 for 3 days, stained with 0.5% crystal violet (Bio-Rad, Hercules, CA, USA), and then analyzed in an ELISA reader (model 3550 UV ELISA reader; Bio-Rad). […] After 1-h pre-incubation, cells were treated with IL-22 or left unstimulated, cultured for other 24, 48 and 72 h, and the number of viable cells determined by CyQUANT Cell Proliferation Assay, accordingly to manufacture's protocol. […]

[6] = system: healthy keratinocytes; test: CyQUANT proliferation assay, healthy keratinocytes; format: cell-based, human; conditions: healthy KC; PD98059 20 μM or S3I-201 10 μM, 48 h
Procedure: as §4, §5

[7] = system: CAL33 cells; test: Scratch assay (migration), CAL33; format: cell-based; conditions: CAL33; 40 μM peptide, PD98059 20 μM or S3I-201 10 μM; IL-22 50 ng/ml, 24 h
Procedure: as §2, §3

| Molecule | SOCS3 mRNA and protein expression [1] | SOCS1 mRNA and protein expression [2] | SOCS3 mRNA and protein expression [3] | wound closure / migration, resting cells ([4]; CAL27, without IL-22, 40 μM peptide or S31-201 10 μM) | wound closure, IL-22-treated ([4]; CAL27, 40 μM peptide, PD98059 20 μM or S3I-201 10 μM, IL-22 50 ng/ml) | proliferation (effect relative to KIR-ESS) [5] | proliferation (effect relative to KIR-ESS) [6] | wound closure, IL-22-treated [7] |
| --- | --- | --- | --- | --- | --- | --- | --- | --- |
| IFN-γ: cytokine stimulus, R&D Systems | significantly up-regulated by IFN-γ in all cell lines | significantly up-regulated by IFN-γ in all cell lines both at transcriptional and protein level, with the exception of SOCS1 protein in the BCC lines | significantly up-regulated by IFN-γ in all cell lines | – | – | – | – | – |
| Cc1ccc(S(=O)(=O)OCC(=O)Nc2ccc(C(=O)O)c(O)c2)cc1 [S3I-201] | – | – | – | efficacious in inhibiting migration of CAL27 cells | effect similar to those obtained with the chemical Erk1/2 and STAT3 inhibitors | KIR-ESS effect was similar to that observed in all healthy and transformed keratinocyte cultures | KIR-ESS effect was similar to that observed in all healthy and transformed keratinocyte cultures | effect similar to those obtained with the chemical Erk1/2 and STAT3 inhibitors |
